Literature values, collected in patent publication US20100292199A1 (priority 2007, published 2010).

SMILES: C[C@]12CC[C@H]3[C@@H](CCC4=CC(=O)CC[C@@]43C)[C@@H]1CC[C@@H]2O [Testosterone]
- solubility in ethyl alcohol (ethyl alcohol): soluble in ethyl alcohol
- solubility in water (water): insoluble in water
